Assay results: patent US20060069132A1, “Azolecarboxamide herbicides” (priority 2004, published 2006)

What was measured:
large crabgrass [1] = test: Test A pre-/postemergence herbicide test; format: in vivo, Digitaria sanguinalis
Procedure, shortened: (§1)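 Greenhouse injury scoring (0–100, complete control = 100) at approximately ten days follows simultaneous pre- and postemergence application. Soil received a directed spray after seeding; seedlings of 2–10 cm at the one- to two-leaf stage were sprayed to runoff.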

redroot pigweed = test: Test A pre-/postemergence herbicide test; format: in vivo, Amaranthus retroflexus
Procedure, shortened: as §1

rice = test: Test B pre-/postemergence herbicide test; format: in vivo, Oryza sativa; conditions: preemergence
Procedure, shortened: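 Herbicidal effect was judged by eye on a 0–100 scale after plants stood 13 to 15 days in the greenhouse following pre- or postemergence treatment with surfactant-containing formulations.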

corn = test: Test C pre-/postemergence herbicide test; format: in vivo, Zea mays; conditions: for Corn plant response rating: 500 g ai/ha
Procedure, shortened: (§2)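 Pre/post spray; non-phytotoxic solvent + surfactant. Post-timing 1–4 leaves, 2–18 cm. Read-out: visual % control vs untreated, day 12–14, greenhouse.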

large crabgrass [2] = test: Test C pre-/postemergence herbicide test; format: in vivo, Digitaria sanguinalis; conditions: for Crabgrass, Large plant response rating: 500 g ai/ha
Procedure, shortened: as §2

johnsongrass = test: Test C pre-/postemergence herbicide test; format: in vivo, Sorghum halepense
Procedure, shortened: as §2

eastern black nightshade = test: Test C pre-/postemergence herbicide test; format: in vivo, Solanum ptycanthum; conditions: for Plant response rating (0 = no effect, 100 = complete control), Nightshade: 62 g ai/ha; for Plant response rating (0 = no effect, 100 = complete control), Nightshade / Plant response rating, Nightshade: preemergence
Procedure, shortened: as §2

[3] = Postemergence, 500 g ai/ha, 0 to 100 scale, 0 no effect, 100 complete control
[4] = Postemergence, 2000 g ai/ha, 0 to 100 scale, 0 no effect, 100 complete control
[5] = Preemergence, 500 g ai/ha, visual rating, 0 to 100 scale (0 no effect, 100 complete control)
[6] = Preemergence, 2000 g ai/ha, visual rating, 0 to 100 scale (0 no effect, 100 complete control)
[7] = 500 g ai/ha, visual rating 0-100, 0 no effect, 100 complete control
[8] = 125 g ai/ha, 0 to 100 scale, 0 is no effect, 100 is complete control
[9] = 125 g ai/ha, scale 0 (no effect) to 100 (complete control), visual, 12 to 14 days, preemergence
[10] = 250 g ai/ha, scale 0 to 100 (0 no effect, 100 complete control), visual, 12 to 14 days, preemergence
[11] = Postemergence, 250 g ai/ha, scale 0 to 100, 0 no effect, 100 complete control
[12] = Preemergence, scale 0 to 100, 0 no effect, 100 complete control
[13] = postemergence, 125 g ai/ha, scale 0 to 100
[14] = postemergence, 62 g ai/ha, scale 0 to 100
[15] = Preemergence, 500 g ai/ha, scale 0 to 100, 0 no effect, 100 complete control
[16] = 125 g ai/ha, scale 0 (no effect) to 100 (complete control), visual, 12 to 14 days
[17] = Preemergence, 2000 g ai/ha, 0 to 100 scale, 0 no effect, 100 complete control
[18] = 31 g ai/ha, preemergence, scale 0 to 100

SMILES | Crabgrass, Large plant response rating (large crabgrass [1]; [3]) | Plant response rating, Crabgrass, Large (large crabgrass [1]; [4]) | Crabgrass, Large plant response rating (large crabgrass [1]; [5]) | Pigweed plant response rating (redroot pigweed; [3]) | Plant response rating, Pigweed (redroot pigweed; [4]) | Plant response rating, Rice (rice; [7]) | Plant response rating, Rice (rice; [8]) | Plant response rating (0 = no effect, 100 = complete control), Corn (corn; 62 g ai/ha, preemergence) | Plant response rating, Corn (corn; [9]) | Plant response rating, Corn (corn; [10]) | Plant response rating (0 = no effect, 100 = complete control), Crabgrass, Large (large crabgrass [2]; 62 g ai/ha, preemergence) | Plant response rating, Crabgrass, Large (large crabgrass [2]; [9]) | Plant response rating, Crabgrass, Large (large crabgrass [2]; [10]) | Plant response rating (0 = no effect, 100 = complete control), Johnsongrass (johnsongrass; 62 g ai/ha, preemergence) | Plant response rating, Johnsongrass (johnsongrass; [9]) | Plant response rating (0 = no effect, 100 = complete control), Nightshade (eastern black nightshade) | Plant response rating, Nightshade (eastern black nightshade; [16]) | other results
CCNC(=O)c1cccc(NC(=O)c2cc(C(C)(C)C)nn2CC)n1 [Compound 144] | 55 | 90 | 90 | 100 | 100 | 30 | 20 | 0 | 30 | 40 | 50 | 70 | 85 | 0 | 0 | 90 | 100 | Crabgrass, Large plant response rating (large crabgrass [1]; [6]): 90; Pigweed plant response rating (redroot pigweed; [6]): 100; Pigweed plant response rating (redroot pigweed; preemergence, 500 g ai/ha, visual injury, 0 to 100 scale (0 no effect, 100 complete control)): 100; Corn plant response rating (corn; Postemergence, scale 0 to 100): 30; Plant response rating, Corn (corn; [11]): 20; Corn plant response rating (corn; [12]): 50; Plant response rating, Corn (corn; [13]): 20; Plant response rating, Corn (corn; [14]): 10; Crabgrass, Large plant response rating (large crabgrass [2]; Postemergence, scale 0 to 100): 100; Plant response rating, Crabgrass, Large (large crabgrass [2]; [11]): 100; Crabgrass, Large plant response rating (large crabgrass [2]; [12]): 100; Plant response rating, Crabgrass, Large (large crabgrass [2]; [13]): 10; Plant response rating, Crabgrass, Large (large crabgrass [2]; [14]): 0; Plant response rating, Johnsongrass (johnsongrass; [11]): 10; Johnsongrass plant response rating (johnsongrass; [15]): 90; Plant response rating, Johnsongrass (johnsongrass; [13]): 0; Plant response rating, Johnsongrass (johnsongrass; [14]): 0; Nightshade plant response rating (eastern black nightshade; [15]): 100
CCOC(=O)c1cc(NC(=O)c2cc(C(C)(C)C)nn2CC)ccc1OCC [Compound 95] | 25 | 60 | 50 | 85 | 100 | 50 | 30 | 0 | 10 | 20 | 80 | 100 | 100 | 0 | 40 | 95 | 95 | Crabgrass, Large plant response rating (large crabgrass [1]; [17]): 90; Pigweed plant response rating (redroot pigweed; [5]): 100; Pigweed plant response rating (redroot pigweed; [17]): 100; Plant response rating, Corn (corn; [18]): 0; Plant response rating, Crabgrass, Large (large crabgrass [2]; [18]): 10; Plant response rating, Johnsongrass (johnsongrass; [18]): 0; Plant response rating, Nightshade (eastern black nightshade; 31 g ai/ha, scale 0 to 100): 90
